Experimental data taken from patent publication US5962417A, “Methods of modulating melanin synthesis” (Trustees of Boston University, priority 1998, dated 1999).

What was measured:
[1] = test system: TRP 1
Method: (§1) To investigate whether PKC regulates other melanogenic proteins such as tyrosinase related proteins (TPR 1 and TPR 2), melanocytes were treated with 10^-7 M TPA for 2 weeks, a condition known to deplete PKC, and TRP 1 and TRP 2 protein levels were determined using immunoblot analysis with specific antibodies. […] TRP 1 and TRP 2 were immunoprecipitated and incorporation of ^3 H-glycosamine into these proteins was examined.

[2] = target: TRP 2
Method: as §1

[3] = 10^-7 M TPA for 2 weeks (PKC depletion), melanocytes
[4] = TPA for 2 weeks, melanocytes labeled with 3H-glycosamine

SMILES: CCCCCCCCCCCCCC(=O)O[C@@H]1[C@@H](C)[C@@]2(O)[C@@H](C=C(CO)C[C@]3(O)C(=O)C(C)=C[C@@H]23)[C@@H]2C(C)(C)[C@]12OC(C)=O [TPA, tetraphorbol acetate]
- effect on TRP 1 protein level [1, 3]: no effect
- effect on glycosylated or non-glycosylated form of TRP 1 (3H-glycosamine labeling) [1, 4]: did not affect
- effect on 65 kd non-glycosylated TRP 2 precursor [2, 3]: unaffected
- reduction of level of glycosylated mature form of TRP 2 (80 kd) [2, 3]: 50-70%
- reduction of 3H-glycosamine incorporation into TRP 2 [2, 4]: > 50%
